Test results reported in patent EP0094815B1, “Oligopeptide prodrugs” (SMITHKLINE BECKMAN CORPORATION, priority 1982, dated 1983).

Assays:
C. albicans = assay: Minimum inhibitory concentration, two-fold broth dilution (Method B); format: cell-based, Candida albicans; conditions: C. albicans in Method B; text summary of MIC table (table is an image)
Protocol: (§1) The minimum inhibitory concentration of the test compound was determined by two-fold broth dilution tests in yeast carbon base medium, containing 200 pg/ml of sodium glutamate. The compounds were diluted from […] to 0.25 pg/ml and the test medium was inoculated with a suspension of C. albicans grown in the same medium for 15 hours at 37°. The final inoculum sizes in the tests were approximately 10^4 cfu/ml and 10^3 cfu/ml. The tubes were incubated at 37° for 24 and 48 hours and observed for inhibition.

[1] = Stability of a-substituted glycine peptides in aqueous buffer (Ellman colorimetric assay); format: physicochemical; conditions: for half-life: 0.2 M phosphate buffer (pH 7.0), no enzyme, read-out: stable (t)
Leucine Aminopeptidase = assay: Enzyme catalyzed warhead release (Ellman colorimetric assay); format: biochemical, hog; conditions: pH 7.0; linear rate over the observation period (5 min)
Protocol: In each case upon addition of the enzyme, Leucine Aminopeptidase, the warhead was released. The release was maintained at a linear rate over the observation period (5 min). […] These observations are consistent with literature reports of the optimal pH necessary for the efficacy of this enzyme. These observations were obtained by colorimetric assay, which involves the reaction between a free sulfhydryl group and 5,5'-dithio-bis(2-nitrobenzoic acid), the Ellman reagent, to produce a yellow color as follows: [drawing 44] The peptide from Example 4 was dissolved in 4 mM of phosphate buffer solution (pH 7) containing the Ellman reagent at a level of 4 mg/ml to produce a 1 mM solution of the peptide. The resulting mixture was monitored using a spectrophotometer at a wavelength of 412 nm. To 1 ml of this solution was added 100 µg of hog kidney leucine aminopeptidase (Sigma) and the enzymatic hydrolysis was continuously monitored at 412 nm.

[2] = tested on: representative fungal and bacterial organisms; assay: Biological screen of the utility (antimicrobial) example; format: cell-based; conditions: product of first deblocking, later found not completely deblocked
Protocol: A prototypal compound, L-alanyl-2-(5-fluorouracil-2-yl)-L-glycine, was evaluated against representative fungal and bacterial organisms.
Candida albicans strains B―311 and BC 759, obtained from Smith Kline and French Laboratory Culture Collection were grown in a trypticase soy broth at 28° for 7 hours. The seeded plates, with this medium containing 1.5% agar, were prepared by inoculating 1 ml of the inoculum in 1 I of yeast-carbon base medium, containing 200 µg/ml of lysine or glutamate as a sole source of nitrogen.
as §1
A method similar to A above but using E. coli was used which employs a M-9 medium (basic salts with ammonium ion as the nitrogen source and glucose as the carbon source).

| Compound | antifungal activity (C. albicans) | half-life [1] [h] | further results |
| --- | --- | --- | --- |
| C[C@H](N)C(=O)NC(C(=O)O)n1cc(F)c(=O)[nH]c1=O (mixture of isomers) [L-, DL, L-alanyl-2-(5-fluorouracil-1-yl)-D,L-glycine] | antifungal activity | – | – |
| C[C@H](N)C(=O)NC(SCCNc1cc(C(=O)O)nc(C(=O)O)c1)C(=O)O (stereo partly shown) [Example 4] | – | > 83.3 | non-enzymatic warhead release ([1]; pH 7.5): no noticeable increases; warhead release upon addition of the enzyme (Leucine Aminopeptidase): released |
| C[C@H](N)C(=O)NC(NNS(=O)(=O)c1cc(C(=O)O)cc(C(=O)O)c1)C(=O)O (stereo partly drawn) [Example 12, L-alanyl-2-(3,5-dicarboxy-phenylsulfohydrazino)-D,L-glycine] | – | – | activity in the biological screen [2]: not active |
| C[C@H](N)C(=O)NC(Sc1ccccc1)C(=O)O (stereo partly drawn) [Example 13, L-alanyl-2-(thiophenyl)-D,L-glycine] | – | > 83.3 | – |
| C[C@H](N)C(=O)NC(C(=O)O)n1cc(F)c(=O)[nH]c1=O (stereo partly drawn) [L-L, L-alanyl-2-(5-fluorouracil-2-yl)-L-glycine] | antifungal activity | – | – |
